≈ marks a conversion by molar mass, not a printed value. Where two headings read alike, the source gives them in different places.
Columns and labels:
[1] = tested on: Schistosoma mansoni 21-day-old schistosomules; experiment: effect on 21-day-old schistosomules in mice; format: in vivo; settings: single 200 mg/kg per os, female mice
Experimental: All groups were killed 4 weeks after treatment and the liver and intestine were removed and separated. The liver and intestine were compressed and alive male and female worms could be seen and counted. The effect of the compounds was evaluated by mean total and female worm burden.

[2] = tested on: Schistosoma mansoni adult schistosomes (49-day-old); experiment: effect on adult schistosomes (49-day-old) in mice; format: in vivo; settings: single 400 mg/kg per os
Experimental: Mice were infected with 100 Schistosoma mansoni cercariae […]. Each group was treated per os with OZ compounds at single doses of 200, 400, and 600 mg/kg. […] All groups were killed 4 weeks after treatment and the liver and intestine were removed and separated. The liver and intestine were compressed and alive male and female worms could be seen and counted.

P. berghei ANKA strain [3] = experiment: prophylactic activity, single 100 mg/kg po dose before infection; format: in vivo, Plasmodium berghei; settings: for Prophylactic Activity (%): reduction of parasitemia day 3 post-infection
Experimental: (§1) Moro NMRI male mice (Fü Albino specific pathogen free) weighing 18±2 g were infected intravenously (i.v.) with 2×10^7 P. berghei ANKA strain-infected erythrocytes from donor mice on day 0 of the experiment. From donor mice with circa 30% parasitemia, heparinized blood was taken and diluted in physiological saline to 10^8 parasitized erythrocytes per ml. An aliquot (0.2 ml) of this suspension was injected i.v. into experimental and control groups of mice. In untreated control mice, parasitemia rose regularly to 40 to 50% by day 3 post-infection and 70 to 80% by day 4 post-infection. The mice died between days 5 and 7 post-infection. Throughout the experiments, mice were kept in groups of three or five animals in Makrolon type II cages in an air-conditioned animal room at 22 to 23° C. A diet with p-aminobenzoic acid (PABA) of 45 mg (NAFAG FUTTER© food N^o 9009 PAB-45) per kg of body weight, and tap water is available ad libitum.
(§2) OZ compounds were prepared at an appropriate concentration, either as a solution or a suspension containing SSV (0.5% w/v CMC, 0.5% v/v benzyl alcohol, 0.4% v/v Tween 80, and 0.9% w/v sodium chloride in water). They were administered per os (p.o.) in a total volume of 0.01 ml per gram of mouse. The activity of the compound was determined by a variety of methods outlined in subsequent sections. Survival time was also recorded, and survival to day 30 post-infection was considered to be a cure.
Prophylactic activities of the compounds were compared after administering po single dose of 100 mg/kg to different groups of five animals at various times before infection. All groups including an untreated control group, were then infected at the same time. Parasitemia was determined for each animal on day 3 post-infection, and percent of reduction of the level of parasitemia compared to levels for animals given no drug is determined.

Schistosoma japonicum = experiment: effect in mice infected with Schistosoma japonicum; format: in vivo; settings: age of worm 35 days, 400 mg/kg x 1
P. berghei ANKA strain [4] = experiment: treatment: 3x3 mg/kg and 3x1 mg/kg po divided doses in infected mice; format: in vivo, Plasmodium berghei; settings: for Activity (%) p.o. SSV: percent reduction of parasitemia day 4
Experimental: as §1, §2
The second experiment consists of administration of divided 3×3 mg/kg and 3×1 mg/kg po doses administered on days 1, 2, and 3 post-infection. On day 4 post-infection, blood smears of all animals were prepared and stained with Giemsa. Parasitemia was determined microscopically, and the difference between the mean value of the control group (taken as 100%) and those of the experimental groups was calculated and expressed as percent reduction. Compounds were administered orally in the SSV vehicle.

[5] = tested on: ANKA strain of Plasmodium berghei; experiment: single dose ED50/ED90/ED99 determinations in infected mice; format: in vivo; settings: single dose po in SSV, mice, percent reduction in parasitemia on day three post-infection
Experimental: In the single dose ED50/ED90/ED99 determinations, Moro SPF or NMRI mice (group of three) infected with the ANKA strain of Plasmodium berghei were treated on day one post-infection. […] The SSV consists of 0.5% w/v CMC, 0.5% v/v benzyl alcohol, 0.4% v/v Tween 80, and 0.9% w/v sodium chloride in water. Antimalarial activity was measured by percent reduction in parasitemia on day three post-infection. The ED50/ED90 values were calculated by nonlinear fitting.

[6] = tested on: P. falciparum NF54 strain (sensitive to standard antimalarials); experiment: semiautomated microdilution assay, [3H]-hypoxanthine incorporation, NF54 strain; format: cell-based, Plasmodium falciparum; settings: NF54 strain, 72 h incubation
Procedure, shortened: (§3)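 Logit regression analysis was used to estimate IC50 values. Parasites were intraerythrocytic forms from asynchronous stock cultures, and compounds were tested by semiautomated microdilution.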

[7] = tested on: parasitemia (malaria infection); experiment: onset of action and recrudescence experiments; format: in vivo; settings: for Time of Recrudescence: single 100 mg/kg po (SSV) on day +3 post-infection, recrudescence = >5% parasitemia, followed up to 60 days, (n/5) = animals
Experimental: The onset of drug action was determined after a single fixed dose of 100 mg/kg (SSV vehicle) po to groups of five animals on day +3 post-infection (day 0).

[8] = tested on: ANKA strain of P. berghei; experiment: single dose STI in vivo screen in infected mice; design: species or system Plasmodium berghei
Procedure, shortened: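 Groups of 3-5 Moro SPF or NMRI mice infected with the ANKA strain of P. berghei received a single dose of trioxolane on day one post-infection. The compound was given in 3% ethanol and 7% Tween 80 or in SSV (0.5% w/v CMC, 0.5% v/v benzyl alcohol, 0.4% v/v Tween 80, 0.9% w/v sodium chloride in water). Antimalarial activity was scored as percent reduction in parasitemia on day three and as survival time versus untreated controls. Survival to day 30 counted as cure.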

[9] = tested on: P. falciparum K1 strain (Thailand resistant to chloroquine); experiment: semiautomated microdilution assay, [3H]-hypoxanthine incorporation, K1 strain; format: cell-based, Plasmodium falciparum; settings: K1 strain, 72 h incubation
Procedure, shortened: as §3

dosing in dogs = format: in vivo; settings: dog
From the text: (§4) Artesunate is listed as a reference compound.

dosing in rats = format: in vivo; settings: rat
From the text: as §4

[10] = chemical properties of OZ277 salts; settings: salt of OZ277
[11] = single 100 mg/kg po 24 h before infection
[12] = 3 × 1 mg/kg days 1, 2, 3 post-infection
[13] = 3 × 3 mg/kg days 1, 2, 3 post-infection

Structure (SMILES)	% reduction of schistosomule growth at day 21 after per os application of 200 mg/kg, FWR (%) [1]	% reduction of schistosomule growth at day 21 after per os application of 200 mg/kg, TWR (%) [1]	% reduction of adult worms growth at day 49 after per os application of 400 mg/kg, TWR (%) [2] [%]	Prophylactic Activity (%) (P. berghei ANKA strain [3]; [11])	Prophylactic Activity (%) (P. berghei ANKA strain [3]; single 100 mg/kg po at 0 h)	Activity (%) p.o. SSV (P. berghei ANKA strain [4]; [12]) [%]	Activity (%) p.o. SSV (P. berghei ANKA strain [4]; [13]) [%]	ED90 [5] [mg/kg]	ED99 [5] [mg/kg]	Time of Recrudescence [7] [days]	IC50 (ng/ml) NF54 [6] [ng/mL]	IC50 (ng/ml) K1 [9] [ng/mL]	Chemical Stability [10]	Crystallinity [10]	Particle size (90% of particles less than) [10]	Physical stability [10]	Stability in analytical solution (up to 24 hrs) [10]	further results
CO[C@H]1O[C@@H]2O[C@@]3(C)CC[C@H]4[C@H](C)CC[C@@H]([C@H]1C)[C@@]24OO3 [AM, artemether, reference compound]	(n4) 85%	(n4) 85%	53	0	100	51	86	4.2	7.1	–	–	–	–	–	–	–	–	FWRR/% (female worm reduction rate) (Schistosoma japonicum): 71%; Mice without ♀ worm (Schistosoma japonicum): 0/7; WRR/% (worm reduction rate) (Schistosoma japonicum): 62%; MTWB/x ± SD (mean total worm burden) (Schistosoma japonicum; control 26.6 ± 4.2): 10.1 ± 4.4
OC(c1cc(C(F)(F)F)nc2c(C(F)(F)F)cccc12)C1CCCCN1 (stereo not shown) [MFQ, mefloquine, reference compound]	–	–	–	100	100	2	98	5.4	6.8	28.0	–	–	–	–	–	–	–	IC50 ([6]; Plasmodium falciparum, read-out: IC50 (ng/ml) NF54): 5 ng/mL (≈ 13.2 nM); Prophylactic Activity (%) (P. berghei ANKA strain [3]; single 100 mg/kg po 48 h before infection): 99.92%; Prophylactic Activity (%) (P. berghei ANKA strain [3]; single 100 mg/kg po 72 h before infection): 99.97%; duration of prophylactic protection (P. berghei ANKA strain [3]; single 100 mg/kg po before infection): 3 days; onset of action (decline in parasitemia) ([7]; single 100 mg/kg po (SSV), parasitemia monitored 12, 24, 48 h after treatment): slow onset of action; Activity (%) 3 mg/kg SSV po ([8]; percent reduction in parasitemia day 3 post-infection, single 3 mg/kg po in SSV): 9%; Survival (days) 3 mg/kg SSV po ([8]; single 3 mg/kg po in SSV): 6.3 days; Survival (days) 10 mg/kg SSV po ([8]; single 10 mg/kg po in SSV): 17 days; Survival (days) p.o. SSV (P. berghei ANKA strain [4]; [12]): 6.2 days; Survival (days) p.o. SSV (P. berghei ANKA strain [4]; [13]): 12 days; ED50 ([5]; Plasmodium berghei, read-out: ED50): 4 mg/kg
O=C(C[C@H]1CC[C@]2(CC1)OOC1(O2)C2CC3CC(C2)CC1C3)NO (stereo partly shown) [OZ175]	–	–	–	–	–	–	–	6.2	9.9	13.0	2.0 (≈ 5.93 nM)	1.4 (≈ 4.15 nM)	–	–	–	–	–	ED50 [5]: 3.5 mg/kg
NC(=O)CNC[C@H]1CC[C@]2(CC1)OOC1(O2)C2CC3CC(C2)CC1C3 (stereo partly shown) [OZ256]	86%	85%	10	–	–	–	–	–	–	–	0.2 (≈ 0.571 nM)	0.3 (≈ 0.856 nM)	–	–	–	–	–	IV t1/2 (10 mg/kg) (dosing in dogs; IV 10 mg/kg): 85.4 min; Oral t1/2 (10 mg/kg) (dosing in dogs; oral 10 mg/kg): 82.8 min; Oral Bioavailability 10 mg/kg (dosing in dogs; oral 10 mg/kg, OZ 279, OZ 256, OZ 209 values flagged (V)): 42.0%; Oral Bioavailability 25 mg/kg (dosing in dogs; oral 25 mg/kg, OZ 279, OZ 256, OZ 209 values flagged (V)): 38.3%; adult worms at day 49, per os 400 mg/kg, DEAD WORM (%) [2]: 19%; Activity (%) po ([8]; percent reduction in parasitemia day 3 post-infection, single 10 mg/kg po in 3% ethanol and 7% Tween 80, mice): 99.70%; Activity (%) sc ([8]; percent reduction in parasitemia day 3 post-infection, single 10 mg/kg sc in 3% ethanol and 7% Tween 80, mice): 99.95%; Activity (%) SSVpo ([8]; percent reduction in parasitemia day 3 post-infection, single po dose in standard suspending vehicle (SSV), mice): 99.67%; Survival (days) po ([8]; single 10 mg/kg po in 3% ethanol and 7% Tween 80, untreated control 5.6 ± 0.3): 8.7 days; Survival (days) sc ([8]; single 10 mg/kg sc in 3% ethanol and 7% Tween 80, untreated control 5.6 ± 0.3): 9.7 days; Survival (days) SSVpo ([8]; single po dose in SSV, untreated control 5.6 ± 0.3): 8.7 days; IV t1/2 (10 mg/kg) (dosing in rats; IV 10 mg/kg): 94.0 min; Oral Bioavailability 10 mg/kg (dosing in rats; oral 10 mg/kg): 18.6%; Oral Bioavailability 25 mg/kg (dosing in rats; oral 25 mg/kg): 51.9%; Oral t1/2 (25 mg/kg) (dosing in rats; oral 25 mg/kg): 73.3 min
CC(C)(N)CNC(=O)CC1CCC2(CC1)OOC1(O2)C2CC3CC(C2)CC1C3.O=C(O)CCC(=O)O (stereo not shown) [Succinate]	–	–	–	–	–	–	–	–	–	–	–	–	Stable	Crystalline	˜150 μm	Stable	Stable	–
CC(C)(N)CNC(=O)CC1CCC2(CC1)OOC1(O2)C2CC3CC(C2)CC1C3.Cc1ccc(S(=O)(=O)O)cc1 (stereo not shown) [Tosylate]	–	–	–	–	–	–	–	–	–	–	–	–	Stable	Crystalline	˜50 μm	Stable	Stable	–
